In patent US20120020926A1, “COMPOSITION COMPRISING CAFTARIC ACID AND/OR DERIVATIVES THEREOF” (NESTEC S.A., priority 2009, published 2012):
Read-outs that look alike come from different tables or passages of the source.

Legend:
chlorogenate esterase = conditions: Aspergillus japonicus, 1.85 mg/mL, pH 7
Description: A solution of chlorogenate esterase (0.8 mg, 24 U/g, from Kikkoman Japan) in 100 μl phosphate buffer (50 mM, pH 7.0) was added to a solution of caftaric acid (0.37 mg) in 100 μl phosphate buffer (50 mM, pH 7.0). The mixture was then incubated at 37° C. for 4 h. […] The supernatant was then analysed by HPLC. A reaction control was run in parallel under the same reaction conditions but without enzyme.
(§1) HPLC-DAD analysis of caftaric acid and hydrolysis products was performed on a Agilent 1100 system equipped with a Atlantis C18 reverse-phase column (4.6×100 mm, particle size 3 μm) and a diode array detector. The column was equilibrated with water containing 0.1% formic acid. After injection, a linear gradient to a final solvent composition of 55% water and 45% acetonitrile (containing 0.1% formic acid) was run within 12 min at a flow rate of 1 ml/min. Caftaric acid and caffeic acid were monitored by UV at 320 nm and were quantified using standard calibration curves.

[1] = tested on: spray-dried preparation of L. johnsonii; conditions: Lactobacillus johnsonii, 6 mM, pH 7
Description: 10 mg of a spray-dried preparation of L. johnsonii (3.3 E09 cfu/g) were dissolved in 100 μl of phosphate buffer (50 mM, pH 7.0). To this solution, 100 μl of a caftaric acid solution (12 mM, phosphate buffer 50 mM, pH 7.0) were added. The mixture was then incubated at 37° C. and samples were withdrawn at different reaction times. After centrifugation (3000 g, 5 min) and filtration (0.45 μm pore size syringe filters, Millipore SLHA 025 BS) the samples were analysed by HPLC.
as §1

liver metastasis = conditions: subcutaneous and oral administrations; cited from earlier work
[2] = tested on: L. johnsonii (CNCM I-1225) fresh cells; experiment: Hydrolysis of caftaric acid with L. johnsonii (La1) fresh cells; format: in vitro ADME, Lactobacillus johnsonii; conditions: after 4 h reaction time, 37° C.
Description: Cells of L. johnsonii (CNCM I-1225) were grown (7.0 E08 cfu/ml) and centrifuged (5000 g, 10 min), the pellets were resuspended in phosphate buffer (50 mM, pH 7.0) at a concentration of 0.61 g/ml. To 100 μl of this cells solution, 100 μl of a solution of caftaric acid (12 mM) was added and the mixture was incubated at 37° C. Samples were withdrawn at different reaction times, centrifuged (3000 g, 5 min) and filtered through 0.45 μm pore size syringe filters (Millipore SLHA 025 BS) and analysed by HPLC.
A reaction control was run in parallel under the same reaction conditions but without bacteria.
as §1

[3] = tested on: Nrf2-ARE pathway (AREc32 cells); experiment: Antioxidant Responsive Element (ARE) luciferase assay; format: cell-based, human; conditions: for F/C (firefly luciferase activity): AREc reporter cell line, 24 h
[4] = tested on: L. johnsonii (CNCM I-1225) crude cell extract
Description: (§2) Cells of L. johnsonii (CNCM I-1225) were grown (7.0 E08 cfu/ml) and centrifuged (5000 g, 10 min), the pellets were resuspended in phosphate buffer (50 mM, pH 7.0) at a concentration of 0.61 g/ml. The cells were then lysed using the glass-beads method. 600 μl of cells preparation were put into a Mini-Beadbeater for 1 min of intense shaking, cooled in ice, and put another 1 min in the Mini-Beadbeater. The crude cell extract (100 μl) was then added to 100 μl of a solution of caftaric acid (12 mM, phosphate buffer 50 mM, pH 7.0) and the mixture was incubated at 37° C. Samples were withdrawn at different reaction times, centrifuged (3000 g, 5 min), filtered through 0.45 μm pore size syringe filters (Millipore SLHA 025 BS) and analysed by HPLC.
as §1

[5] = tested on: L. johnsonii (CNCM I-1225) crude cell extract; experiment: Hydrolysis of caftaric acid with La1 extract (lysed cells); conditions: after 2 h, 37° C.
Description: as §2, §1

Row | Compound | Hydrolysis of caftaric acid into caffeic acid by chlorogenate esterase (amount by HPLC) (chlorogenate esterase; 0 min) [%] | Hydrolysis of caftaric acid into caffeic acid by chlorogenate esterase (amount by HPLC) (chlorogenate esterase; 15 min) [%] | Hydrolysis of caftaric acid into caffeic acid by chlorogenate esterase (amount by HPLC) (chlorogenate esterase; 30 min) [%] | Hydrolysis of caftaric acid into caffeic acid by chlorogenate esterase (amount by HPLC) (chlorogenate esterase; 60 min) [%] | Hydrolysis of caftaric acid into caffeic acid by chlorogenate esterase (amount by HPLC) (chlorogenate esterase; 120 min) [%] | Hydrolysis of caftaric acid into caffeic acid by chlorogenate esterase (amount by HPLC) (chlorogenate esterase; 240 min) [%] | hydrolysis of caftaric acid into caffeic acid by a spray-dried preparation of La1 (amount by HPLC) ([1]; 0 min) | hydrolysis of caftaric acid into caffeic acid by a spray-dried preparation of La1 (amount by HPLC) ([1]; 15 min) | hydrolysis of caftaric acid into caffeic acid by a spray-dried preparation of La1 (amount by HPLC) ([1]; 30 min) | hydrolysis of caftaric acid into caffeic acid by a spray-dried preparation of La1 (amount by HPLC) ([1]; 60 min) | hydrolysis of caftaric acid into caffeic acid by a spray-dried preparation of La1 (amount by HPLC) ([1]; 120 min) | hydrolysis of caftaric acid into caffeic acid by a spray-dried preparation of La1 (amount by HPLC) ([1]; 240 min) | further results
1 | O=C(O)/C=C/c1ccc(O)c(O)c1 [Caffeic acid, Caffeic Acid] | 0 | 18 | 26 | 57 | 81 | 98 | 0 | 32 | 53 | 76 | 92 | 98 | liver metastasis (liver metastasis): significantly reduced liver metastasis
2 | O=C(/C=C/c1ccc(O)c(O)c1)O[C@@H](C(=O)O)[C@@H](O)C(=O)O [Caftaric acid] | 99 | 82 | 64 | 43 | 19 | 2 | 99 | 68 | 47 | 24 | 8 | 2 | transformation of caftaric acid into caffeic acid [2]: all caftaric acid was transformed into caffeic acid; Nrf2-luciferase reporter activity ([3]; AREc32 cells, saturation inactivation response at higher doses): positive dose-dependent response; F/C (firefly luciferase activity) ([3]; 125 μg/ml): 2796; F/C (firefly luciferase activity) ([3]; 250 μg/ml): 5821; F/C (firefly luciferase activity) ([3]; 500 μg/ml): 5182; F/C (firefly luciferase activity) ([3]; 750 μg/ml): 25792; F/C (firefly luciferase activity) ([3]; 1000 μg/ml): 4777; F/C (firefly luciferase activity) ([3]; 1200 μg/ml): 29043; reaction rate of hydrolysis as compared to whole cells [4]: increase of the reaction rate; transformation of caftaric acid into caffeic acid [5]: all caftaric acid acid was transformed into caffeic acid
